Drawing on PubChem BioAssay AID1361 (SRMLSC, 2008), this text covers IC50 for 27 molecules.

The nature of the assay: mitochondrial fusion inhibitors, confirmation, cell-based, chemical genetic, wild-type and mutant (AID 1361). Particulars: Cell-based mitochondrial fusion phenotype, imaging.
[1] abbreviates: mutant cells, measured here: mutant cell line IC50.

The source made the active and inactive calls. The rule behind the calls is not given here.

Take `O=C(COC(=O)c1ccc([N+](=O)[O-])s1)Nc1ccccc1`: the IC50 – broadly, the concentration at which inhibition is half-maximal – reads like this: (WT cells) 17.7 µM; under setting [1], over 25 µM.
In the case of `CCn1c2ccccc2c2cc(/C=N/NC(=O)c3cccc(C)c3)ccc21`, the IC50 (WT cells) was > 25 µM (inactive) and the 50% inhibitory concentration (IC50) under setting [1] was over 25 µM.
Turning to `Cc1csc(NC(=O)c2cccn2C)n1`, the IC50 is > 25 µM (inactive) (WT cells) and over 25 µM under setting [1].
Regarding `Cc1cccc(NC(=O)c2ccc(N3CCCCC3)c([N+](=O)[O-])c2)n1`, the IC50 was > 25 µM (inactive) (WT cells) and over 25 µM under setting [1].
`O=c1ccccn1Cc1c(Cl)cccc1Cl`: the IC50 (WT cells) was > 25 µM (inactive) and the IC50 under setting [1] was over 25 µM.
Take `CCOC(=O)C1=C(C)NC(SC(C)=O)=NC1c1ccc(OC(C)=O)c(OC)c1` (centres undefined): the IC50 (WT cells) was > 25 µM (inactive) and the 50% inhibitory concentration (IC50) under setting [1] is over 25 µM.
In the case of `COc1cc(C(=O)OC2CC3CCC2(C)C3(C)C)ccc1OC(C)=O` (centres undefined), the half-inhibitory concentration (IC50) was 20 µM (WT cells) and over 25 µM under setting [1].
With `Cn1c(/C=C/N2CCOCC2)c(C(=O)c2ccc(Br)cc2)c(=O)n(C)c1=O`, the IC50 was > 25 µM (inactive) (WT cells) and over 25 µM under setting [1].
On the same counts, the results for `CCCCN1C(=O)NC(=O)C2(Cc3c(nc4c(C)cccn4c3=O)N3CCc4ccccc4C32)C1=O` (centres undefined) are 11.9 µM and over 25 µM.
In the same order, the values of `OCCNc1c2c(nc3ccccc13)CCCC2` are > 25 µM (inactive) and over 25 µM.
Consider `COc1ccc(Cc2nc3ccc(S(=O)(=O)N4CCOCC4)cc3[nH]2)cc1`, for which the IC50 (WT cells) is > 25 µM (inactive) and the IC50 under setting [1] was over 25 µM.
With `O=C(N=Nc1c(O)n(Cc2ccccc2)c2ccccc12)c1cc2ccccc2cc1O`, the IC50 is > 25 µM (inactive) (WT cells) and over 25 µM under setting [1].
For `CCc1cccc(CC)c1NC(=S)NCCc1c(C)[nH]c2ccccc12`, the IC50 runs as follows: (WT cells) 19.8 µM; under setting [1], over 25 µM.
On the same counts, the results for `Cn1c(Oc2ccc3c(c2)OCO3)nc2c1c(=O)n(Cc1ccccc1)c(=O)n2C` are > 25 µM (inactive) and over 25 µM.
In the same order, the values of `CCn1c(CNC(=O)c2ccco2)nnc1SCC(=O)Nc1cc(C(F)(F)F)ccc1Cl` are > 25 µM (inactive) and over 25 µM.
On the same counts, the results for `COc1ccc(-c2nnc(SCc3cc(C)cc(C)c3)o2)cc1` are 12.9 µM and over 25 µM.
`Fc1ccc(Nc2nc(N/N=C/c3ccco3)nc(N3CCCCC3)n2)cc1`: the IC50 reads like this: (WT cells) 19.3 µM; under setting [1], over 25 µM.
On the same counts, the results for `CN1C(=S)SC(C)(C)C1(C)NO` (centres undefined) are > 25 µM (inactive) and over 25 µM.
Take `COCCn1c(SCc2nnc(-c3ccccc3)o2)nc2sc3c(c2c1=O)CCC3`: the IC50 is 8.38 µM (WT cells) and 17.6 µM under setting [1].
In the same order, the values of `COc1ccc2nc(NC(=O)CN(c3ccc(C)cc3)S(=O)(=O)c3c(C)nn(C)c3C)sc2c1` are 16 µM and over 25 µM.
In the same order, the values of `O=C(CCCCCn1c(=S)[nH]c2cc3c(cc2c1=O)OCO3)N1CCN(C(=O)c2ccco2)CC1` are > 25 µM (inactive) and over 25 µM.
For `CCOC(=O)c1c(NC(=O)c2cccs2)sc2c1CCCC2`, the IC50 (WT cells) was > 25 µM (inactive) and the IC50 under setting [1] is over 25 µM.
On the same counts, the results for `CCCCCCCOC(=O)c1nc(Cl)c(Cl)c(N)c1Cl` are 18.9 µM and over 25 µM.
`CCCCSc1nnc(CNC(=O)C23CC4CC(CC(C4)C2)C3)n1Cc1ccccc1`: the IC50 was > 25 µM (inactive) (WT cells) and over 25 µM under setting [1].
Consider `O=C(c1ccccn1)N1N=C2/C(=C/c3ccc(F)cc3)CCCC2C1c1ccc(F)cc1` (centres undefined), for which the IC50 reads like this: (WT cells) 16.1 µM; under setting [1], over 25 µM.
On the same counts, the results for `CCOC(=O)C(C)c1nc2ccccc2[nH]c1=O` (centres undefined) are > 25 µM (inactive) and over 25 µM.
On the same counts, the results for `CS(=O)(=O)N(CC(=O)NCc1ccc2c(c1)OCO2)c1ccc(Cl)cc1` are > 25 µM (inactive) and over 25 µM.
